# Results as given in patent publication US9464060B2, “Compounds” (TAKEDA PHARMACEUTICAL COMPANY LIMITED, priority 2013, dated 2016).
# Counter-ions that a name gives are not always drawn.
# What was measured:
# LPA5 receptor [1] = molecular target: T1, LPA5 receptor (Homo sapiens (Human), UniProt Q9H1C0); details: reported, cited from earlier work
# LPA5 receptor [2] = molecular target: T1, LPA5 receptor; assay: In vitro LPA5 receptor assay (LPA-driven intracellular calcium release, FLIPR); type: cell-based; details: RH7777 cells expressing human LPA5 receptors; LPA at EC90
# Procedure: In Vitro LPA5 Receptor Assay
# (§1) Engagement of the LPA5 receptor by its ligand, oleoyl-L-α-lysophosphatidic acid (LPA), leads to the release of intracellular stores of calcium into the cytoplasm mediated through a Gq-driven increase in inositol triphosphate (IP3) levels. Gq is a heterotrimeric G protein subunit that activates phospholipase C.
# The ability of test compounds to prevent LPA-driven intracellular release of stored calcium from RH7777 cells expressing human LPA5 receptors was assayed by stimulating the cells with LPA in the presence of various test compounds to measure the test compounds'antagonism, i.e. activity in vitro.
# (§2) Approximately 10,000 cells in normal culture medium (Minimal Essential Media, 10% Foetal Calf Serum) were dispensed per assay well in a black clear bottom poly-D-lysine coated 384 well plate (Corning). Cells were allowed to settle for thirty minutes at room temperature before being incubated overnight at 37° C., 5% CO2. Sixteen to twenty hours after dispensing, the cells were loaded with a calcium-sensitive fluorescent dye by replacing the culture medium with assay buffer (1× Hanks buffered saline, 25 mM HEPES, 0.1% w/v fatty acid free BSA (bovine serum albumin), pH7.4) containing 1.25 mM probenecid and 1× Calcium 5 Reagent (Molecular Devices). Cells were incubated at 37° C. for one hour to allow for dye uptake.
# (§3) To test for antagonist activity, test compounds at a final concentration range between 0.32 nM-10 μM (diluted in assay buffer) were added to the assay wells and allowed to incubate for fifteen minutes. […] Ligand-dependent changes in intracellular calcium levels were determined by measuring changes in fluorescence of the dye over […] following excitation over […].
# LPA5 receptor [3] = assay: In vivo farnesyl pyrophosphate-induced hyperalgesia model (Randall-Selitto); details: rat, FPP-induced hyperalgesia
# Procedure: In Vivo Farnesyl Pyrophosphate-Induced Inflammatory Model
# The FPP-induced hyperalgesia model is a pharmacodynamic rat model which involves inducing pain by injecting FPP, an agonist of LPA5 receptor, into the plantar surface of the hindpaw.
# Withdrawal responses were reassessed at 30 and 90 minutes after injection of FPP in the ipsilateral paw.
# human LPA1 receptors = human LPA1 receptors (Homo sapiens (Human), UniProt Q92633); assay: In vitro LPA1 receptor assay (LPA-driven intracellular calcium release, FLIPR); type: cell-based; details: RH7777 cells expressing human LPA1 receptors; LPA at EC80
# Procedure: In Vitro LPA1 Receptor Assay
# as §1, with “LPA1” for “LPA5”
# The ability of test compounds to prevent LPA-driven intracellular release of stored calcium from RH7777 cells expressing human LPA1 receptors was assayed by stimulating the cells with LPA in the presence of various test compounds to measure the test compounds' antagonism, i.e. activity in vitro.
# as §2, with “(Dulbecco's Modified Eagle” for “(Minimal Essential”, “collagen” for “poly-D-lysine”, “(Beckton Dickinson).” for “(Corning).”
# as §3, with “twenty five” for “fifteen”
# [4] = In vivo bleomycin induced scleroderma model; set-up: species or system C57BL/6 mice; details: mice, bleomycin i.d.
# Procedure: In Vivo Bleomycin Induced Scleroderma Model Experimental Outline
# Adult male C57BL/6 mice, aged 8-10 weeks, were assigned to groups and allowed to acclimatise for a week. On Day −1, the back skin of the animals was shaved. From Day 0, animals were administered with 100 μl of a 1 mg/ml solution of bleomycin sulphate in phosphate buffered saline (PBS) by intradermal injection in the shaved skin. Injections were repeated in a one square centimeter area every other day for four weeks. A group of ten animals (Control group) was injected with an identical volume of PBS. Animals were weighed at the beginning of the experiment on Day 0 and then twice weekly throughout the study. At the end of the experiment, on Day 28, animals were culled and samples of back skin were taken for further analysis. All groups were n=10; the vehicle was distilled water and the administration volume was 10 ml/kg for oral gavage (p.o.); administration volume was 25 μl for topical application.
# Bodyweights were graphed along with the standard error of the mean (SEM); Skin samples (two punch biopsies per animal, 4 mm in diameter each) samples were hydrolyzed and hydroxyproline content of the samples was determined from analysis in a semi-automated process using a continuous flow analyzer. Autoanalyser readings were calibrated against hydroxyproline standards and collagen content calculated. […] Bleomycin administration induced a highly significant increase in skin collagen content when compared to the control, saline-injected, group (p<0.01).
# Sequence of human LPA1 receptors (Q92633 whole entry): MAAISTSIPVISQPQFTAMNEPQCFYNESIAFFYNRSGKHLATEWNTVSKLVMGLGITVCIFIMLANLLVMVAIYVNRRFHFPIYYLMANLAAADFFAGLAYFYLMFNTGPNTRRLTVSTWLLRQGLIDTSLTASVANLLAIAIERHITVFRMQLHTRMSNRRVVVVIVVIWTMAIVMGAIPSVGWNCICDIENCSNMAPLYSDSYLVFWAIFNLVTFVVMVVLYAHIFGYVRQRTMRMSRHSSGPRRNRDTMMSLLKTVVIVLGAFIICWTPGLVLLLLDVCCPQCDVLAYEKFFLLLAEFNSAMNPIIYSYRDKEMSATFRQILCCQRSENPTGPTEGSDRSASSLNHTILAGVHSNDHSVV
# T1 sequence (Q9H1C0 whole entry): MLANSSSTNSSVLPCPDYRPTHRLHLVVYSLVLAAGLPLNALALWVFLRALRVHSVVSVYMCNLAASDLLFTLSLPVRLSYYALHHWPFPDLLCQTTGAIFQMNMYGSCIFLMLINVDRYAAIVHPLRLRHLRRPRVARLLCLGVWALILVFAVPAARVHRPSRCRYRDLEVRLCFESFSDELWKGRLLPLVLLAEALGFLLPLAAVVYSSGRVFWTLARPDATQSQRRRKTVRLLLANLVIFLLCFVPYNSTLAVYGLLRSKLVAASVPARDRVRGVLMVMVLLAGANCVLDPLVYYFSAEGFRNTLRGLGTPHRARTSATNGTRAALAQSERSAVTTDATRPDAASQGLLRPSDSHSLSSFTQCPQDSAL
Compound,IC50 (LPA5 receptor [2]) [nM],IC50 (human LPA1 receptors) [nM],further results
CC(C)=CCC/C(C)=C/CC/C(C)=C/COP(=O)(O)OP(=O)(O)O [Farnesyl pyrophosphate],–,–,"EC50 (LPA5 receptor [1]; LPA5 receptor, read-out: in-vitro EC50): 49 nM; selectivity over other LPA receptors (LPA5 receptor [1]): 3 fold"
"O=C(O)c1ccc(CN(Cc2ccccc2)C(=O)c2ccc(Oc3ccccc3F)cc2)cc1 [Example 11, 4-((N-Benzyl-4-(2-fluorophenoxy)benzamido)methyl)benzoic acid]",6,6,In vivo efficacy (minimum effective dose (MED) mg/kg) (LPA5 receptor [3]; route po): ≦10 mg/kg
"Cc1ccc(NC(=O)c2ccc(CN3CCN(C)CC3)cc2)cc1Nc1nccc(-c2cccnc2)n1 [Imatinib, Imatinib mesylate, reference compound]",–,–,skin collagen content compared to the vehicle-treated group ([4]; treatment from Day 0 to Day 28): non-significant reduction
"C[C@H]1C[C@H]2[C@@H]3CCC4=CC(=O)C=C[C@]4(C)[C@@]3(F)[C@@H](O)C[C@]2(C)[C@@]1(O)C(=O)CO [Betamethasone, reference compound]",–,–,skin collagen content compared to the vehicle-treated group ([4]; treatment from Day 0 to Day 28): non-significant reduction
"O=C(O)c1ccc(CN(CCCc2cccc(F)c2)C(=O)c2ccc(Oc3ccccc3F)cc2)cc1 [Example 17, 4-((4-(2-Fluorophenoxy)-N-(3-(3-fluorophenyl)propyl)benzamido)methyl)benzoic acid]",1,0.4,–
"O=C(O)c1ccc(CN(CC(F)(F)F)C(=O)c2ccc(Oc3ccccc3Cl)cc2)cc1 [Example 72, 4-((4-(2-Chlorophenoxy)-N-(2,2,2-trifluoroethyl)benzamido)methyl)benzoic acid]",42,29,–
"CCCN(Cc1ccc(C(=O)O)cc1)C(=O)c1ccc(Oc2ccc(F)cc2OC)cc1 [Example 80, 4-((4-(4-Fluoro-2-methoxyphenoxy)-N-propylbenzamido)methyl)benzoic acid]",45,110,–
"Cc1cccc(C)c1Oc1ccc(C(=O)N(CCC(C)C)Cc2ccc(C(=O)O)cc2)cc1 [Example 45, 4-((4-(2,6-Dimethylphenoxy)-N-isopentylbenzamido)methyl)benzoic acid]",99,75,–
"COc1ccccc1Oc1ccc(C(=O)N(CCCc2cccc(F)c2)Cc2ccc(C(=O)O)cc2)cc1 [Example 33, 4-((N-(3-(3-Fluorophenyl)propyl)-4-(2-methoxyphenoxy)-benzamido)methyl)benzoic acid]",0.4,0.3,–
"Cc1cccc(C)c1Oc1ccc(C(=O)N(Cc2ccccc2)Cc2ccc(C(=O)O)cc2)cc1 [Example 46, 4-((N-Benzyl-4-(2,6-dimethylphenoxy)benzamido)methyl)benzoic acid]",17,19,–

# Now from value to compound, other results behind:
IC50 (LPA5 receptor [2]) [nM],IC50 (human LPA1 receptors) [nM],Compound,further results
7,11,"Cc1ccccc1Oc1ccc(C(=O)N(Cc2ccccc2)Cc2ccc(C(=O)O)cc2)cc1 [Example 24, 4-((N-Benzyl-4-(o-tolyloxy)benzamido)methyl)benzoic acid]",In vivo efficacy (minimum effective dose (MED) (LPA5 receptor [3]; route po): 30 mg/kg
31,160,"Cc1cccc(F)c1Oc1ccc(C(=O)N(Cc2ccc(C(=O)O)cc2)CC2CC2)cc1 [Example 40, 4-((N-(Cyclopropylmethyl)-4-(2-fluoro-6-methylphenoxy)-benzamido)methyl)benzoic acid]",In vivo efficacy (minimum effective dose (MED) (LPA5 receptor [3]; route po): 60 mg/kg
16,46,"O=C(O)c1ccc(CN(CC2CC2)C(=O)c2ccc(Oc3ccccc3F)cc2)cc1 [Example 5, 4-((N-(Cyclopropylmethyl)-4-(2-fluorophenoxy)benzamido)-methyl)benzoic acid]","bodyweight loss compared to the vehicle-treated group ([4]; 30 mg/kg p.o. BID): did not differ; skin collagen content compared to the vehicle-treated group ([4]; treatment from Day 0 to Day 28): significant reduction; skin collagen content compared to the vehicle-treated group ([4]; treatment from Day 14 to Day 28, 30 mg/kg p.o. BID): significant reduction"
29,14,"Cc1ccccc1Oc1ccc(C(=O)N(CCc2ccccc2)Cc2ccc(C(=O)O)cc2)cc1 [Example 25, 4-((N-Phenethyl-4-(o-tolyloxy)benzamido)methyl)benzoic acid]",–
5,7,"COc1ccccc1Oc1ccc(C(=O)N(Cc2ccc(C(=O)O)cc2)CC2CC2)c(F)c1 [Example 66, 4-((N-(Cyclopropylmethyl)-2-fluoro-4-(2-methoxyphenoxy)benzamido)methyl)benzoic acid]",–
43,34,"COc1ccccc1Oc1ccc(C(=O)N(Cc2ccc(C(=O)O)cc2)CC(F)F)cc1 [Example 29, 4-((N-(2,2-Difluoroethyl)-4-(2-methoxyphenoxy)benzamido)-methyl)benzoic acid]",–
32,46,"CC(C)CCN(Cc1ccc(C(=O)O)cc1)C(=O)c1ccc(Oc2ccccc2F)cc1 [Example 8, 4-((4-(2-Fluorophenoxy)-N-isopentylbenzamido)methyl)benzoic acid]",In vivo efficacy (minimum effective dose (MED) (LPA5 receptor [3]; route po): 100 mg/kg
24,30,"Cc1ccccc1Oc1ccc(C(=O)N(Cc2ccc(C(=O)O)cc2)CC2CC2)cc1 [Example 22, 4-((N-(Cyclopropylmethyl)-4-(o-tolyloxy)benzamido)methyl)benzoic acid]",–
63,49,"CC(C)CN(Cc1ccc(C(=O)O)cc1)C(=O)c1ccc(Oc2ccccc2F)cc1 [Example 4, 4-((4-(2-Fluorophenoxy)-N-isobutylbenzamido)methyl)benzoic acid]",In vivo efficacy (minimum effective dose (MED) (LPA5 receptor [3]; route ip): 1 mg/kg; In vivo efficacy (minimum effective dose (MED) mg/kg) (LPA5 receptor [3]; route po): ≦10 mg/kg
8,12,"COc1ccccc1Oc1ccc(C(=O)N(Cc2ccc(C(=O)O)cc2)CC2CC2)nc1 [Example 69, 4-((N-(Cyclopropylmethyl)-5-(2-methoxyphenoxy)-picolinamido)methyl)benzoic acid]",–
